Reference: publication PMC9127163, “Lysosomal Targeted Cyclometallic Iridium(Ⅲ) Salicylaldehyde-Coumarin Schiff Base Complexes and Anticancer Application” (Frontiers in Chemistry, 2022)

Legend:
Assay type in all cases: cell-based, human
BEAS-2B cells [1] = test: MTT cytotoxicity assay, BEAS-2B cells; conditions: 24 h
Source text: (§1) MTT assay was utilized to evaluate the anticancer activity of Ir1-Ir6 toward A549 cells (human non-small cell lung cancer cells, one of the deadliest types of cancer in both developing and developed countries) along with cisplatin (metal anticancer drug widely used in clinic) as a control and compared with the cytotoxicity against noncancerous BEAS-2B cells (epithelial cells isolated from pathological sections of normal bronchial epithelium from non-cancerous individuals). […] Additionally, the substitution sites of coumarin (6- and 7-) have little effect on these complexes, however, the peripheral substituents show a significant effect on the structure−activity. […] In addition, the data is even better than the reported traditional cyclometallic Ir^III complexes (usually depicted as [(ppy)2Ir (L^L)], L^L = N^N, C^N, C^O, O^N, P^P, etc., Supplementary Table S3). […]
(§2) After plating 5000 cells per well in 96-well plates, the cells were preincubated in drug-free media at 310 K for 24 h before adding different concentrations of drugs to be tested. […] Afterwards, 100 μL of DMSO was transferred into each well to dissolve the purple formazan, and results were measured using a microplate reader (DNM-9606, Perlong Medical, Beijing, China) at an absorbance of 570 nm. […]

A549 cells [2] = test: MTT cytotoxicity assay, A549 cells; conditions: 24 h
Source text: as §1, §2

BEAS-2B cells [3] = test: Mitochondrial membrane potential (JC-1) flow cytometry, BEAS-2B cells; conditions: positive control CCCP (5 μM), 20 min
Source text: (§3) Mitochondria, the main intracellular energy source, play an important role in the process of apoptosis. Disruption of mitochondrial membrane potential (MMP) is usually identified as the early signals of cell apoptotic. JC-1, a liphile cationic fluorescent dye, is generally used to detect the change of MMP, and it emits strong red fluorescence in the normal mitochondrial matrix and green fluorescence after depolarization activation in apoptotic cells ([Antonicka et al., 2017]). In this study, flow cytometry was utilized to analyze this change after the treatment of Ir2 at a gradient concentration. […] In addition, intracellular reactive oxygen species (ROS) is mainly produced and stored in mitochondria, and the accumulation of intracellular ROS can lead to apoptosis ([Romero-Canelón et al., 2015]). A549 and BEAS-2B cells were stained with DCFH-DA after incubated with Ir2 (1.0 × IC50 and 2.0 × IC50) for 24 h (Figure 8B). The intracellular ROS levels increased in a dose-dependent manner.
(§4) Analysis of the changes of mitochondrial potential in cells after exposure to Ir2 were carried out using the mitochondrial membrane potential assay kit with JC-1 (Beyotime Institute of Biotechnology, Shanghai, China) according to the manufacturer’s instructions. […] The samples were immediately analyzed by a flow cytometer (ACEA NovoCyte, Hangzhou, China). […]

A549 cells [4] = test: Mitochondrial membrane potential (JC-1) flow cytometry, A549 cells; conditions: A549, positive control CCCP (5 μM), 20 min
Source text: as §3, with “manner. […]” for “manner.”
as §4

| SMILES | IC50 (BEAS-2B cells [1]) [µM] | IC50 (A549 cells [2]) [µM] | Percentage (%) JC-1 Aggregates (BEAS-2B cells [3]) [%] | Percentage (%) JC-1 Monomers (BEAS-2B cells [3]) [%] | Percentage (%) JC-1 Aggregates (A549 cells [4]) [%] | Percentage (%) JC-1 Monomers (depolarized cells) (A549 cells [4]) [%] |
| --- | --- | --- | --- | --- | --- | --- |
| N.N.[Cl][Pt][Cl] [Cisplatin, reference compound] | 38.4 ± 2.8 | 21.3 ± 1.7 | – | – | – | – |
| N#CC(C#N)=NNc1cccc(Cl)c1 [Positive Control, carbonyl cyanide 3-chlorophenylhydrazone, reference compound] | – | – | 11.60±0.51 | 88.40±0.33 | 22.63±0.55 | 77.37±0.55 |
